Data on two compounds can be found in EP2881391A1, “Spiroindoline carbocycle derivatives and pharmaceutical compositions thereof” (Bayer Pharma Aktiengesellschaft, priority 2013, dated 2015).

For orientation: IC50 means the concentration needed to halve the response being measured.

SMILES strings stand for the structures.

The test addresses T1, human GnRH receptor (Homo sapiens, UniProt P30968).
T1 construct: line established by Prof; Thomas Gudermann; host or cells: CHO cells
T1 sequence (P30968 1-328): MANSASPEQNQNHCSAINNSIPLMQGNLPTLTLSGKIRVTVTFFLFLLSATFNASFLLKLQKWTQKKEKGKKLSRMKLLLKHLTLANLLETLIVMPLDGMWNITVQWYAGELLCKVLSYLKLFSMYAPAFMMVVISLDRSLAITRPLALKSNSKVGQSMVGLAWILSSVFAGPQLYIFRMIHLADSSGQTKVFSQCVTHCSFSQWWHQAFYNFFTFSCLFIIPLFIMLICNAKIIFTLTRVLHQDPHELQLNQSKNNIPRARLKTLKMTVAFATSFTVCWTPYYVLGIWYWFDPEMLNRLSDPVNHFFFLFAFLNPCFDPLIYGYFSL
Kind of test: IP-One HTRF assay (inhibition of GnRH-R activation by buserelin). Type of test: cell-based. The conditions noted are these: IP-One HTRF assay with buserelin (at EC80) stimulation; CHO cells stably expressing human GnRH receptor; tested 20 µM to 1 nM; read-out: Potency IC50. A digest of the protocol: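 CHO cells stably expressing human GnRH-R, pre-incubated 20 min at 22°C with compound (10 concentrations, 20 µM to 1 nM, duplicates), then stimulated 1 h at 37°C with buserelin or LHRH at EC50 or EC80 in pH 7.4 buffer with 50 mM LiCl. IP1 read by HTRF 665/620 nm ratio; IC50 by 4-parameter fit.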
Background: Time-resolved FRET reads energy transfer from a long-lived donor to a nearby acceptor.

Consider `O=C(NCc1ncccc1C(F)(F)F)c1ccc2c(c1)C1(CCC(O)(C(F)(F)F)CC1)C(C1CC1)N2S(=O)(=O)c1ccc(F)cc1` (centres unmarked) [Example 65, 2'-cyclopropyl-1'-[(4-fluorophenyl)sulfonyl]-4-hydroxy-4-(trifluoromethyl)-N-{[3-(trifluoromethyl)pyridin-2-yl]methyl}-1',2'-dihydrospiro[cyclohexane-1,3'-indole]-5'-carboxamide], for which the IC50 was determined as 311 nM.

As to `O=C(NCc1ncccc1C(F)(F)F)c1ccc2c(c1)C1(CCC(O)(C(F)(F)F)CC1)C(C1CC1)N2S(=O)(=O)c1cccc(C(=O)N2CCC2)c1` (centres unmarked) [Example 66, 1'-{[3-(azetidin-1-ylcarbonyl)phenyl]sulfonyl}-2'-cyclopropyl-4-hydroxy-4-(trifluoromethyl)-N-{[3-(trifluoromethyl)pyridin-2-yl]methyl}-1',2'-dihydrospiro[cyclohexane-1,3'-indole]-5'-carboxamide], the 50% inhibitory concentration (IC50) was 2180 nM.
